These results are taken from the kinase profiling compilation of Christmann-Franck et al. (2016).

Assay in all cases: radiometric filter-binding kinase assay
The target of one assay is PHKG1 (human) (UniProt Q16816). Conditions: compound 10.0 µM.
In a further assay the target is RPS6KA3 KD1 KD2 (human) (UniProt P51812).
In a further assay the target is SYK (human) (UniProt P43405). The settings on record: compound 10.0 µM.

The structures appear in SMILES notation.

Sequence of RPS6KA3 KD1 KD2 (human) (P51812 whole entry, looked up): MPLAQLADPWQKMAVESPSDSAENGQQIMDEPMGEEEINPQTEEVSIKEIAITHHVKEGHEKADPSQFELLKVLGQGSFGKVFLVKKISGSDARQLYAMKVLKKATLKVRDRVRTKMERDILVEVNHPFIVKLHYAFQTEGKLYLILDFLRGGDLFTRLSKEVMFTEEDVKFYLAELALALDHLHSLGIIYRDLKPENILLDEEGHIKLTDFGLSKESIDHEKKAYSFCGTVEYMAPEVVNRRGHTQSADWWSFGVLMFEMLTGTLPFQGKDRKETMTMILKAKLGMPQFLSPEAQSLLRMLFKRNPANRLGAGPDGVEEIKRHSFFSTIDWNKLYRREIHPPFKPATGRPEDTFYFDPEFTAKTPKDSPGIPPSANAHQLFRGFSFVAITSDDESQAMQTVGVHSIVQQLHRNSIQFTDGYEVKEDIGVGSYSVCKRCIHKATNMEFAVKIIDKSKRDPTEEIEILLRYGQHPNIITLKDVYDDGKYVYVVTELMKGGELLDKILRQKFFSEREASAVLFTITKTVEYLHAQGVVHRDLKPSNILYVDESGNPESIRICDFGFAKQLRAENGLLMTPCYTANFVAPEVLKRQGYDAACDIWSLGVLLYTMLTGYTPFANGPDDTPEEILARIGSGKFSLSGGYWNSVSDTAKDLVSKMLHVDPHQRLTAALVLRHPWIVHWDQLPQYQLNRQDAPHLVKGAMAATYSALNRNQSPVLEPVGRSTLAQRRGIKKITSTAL
Sequence of PHKG1 (human) (Q16816 whole entry, looked up): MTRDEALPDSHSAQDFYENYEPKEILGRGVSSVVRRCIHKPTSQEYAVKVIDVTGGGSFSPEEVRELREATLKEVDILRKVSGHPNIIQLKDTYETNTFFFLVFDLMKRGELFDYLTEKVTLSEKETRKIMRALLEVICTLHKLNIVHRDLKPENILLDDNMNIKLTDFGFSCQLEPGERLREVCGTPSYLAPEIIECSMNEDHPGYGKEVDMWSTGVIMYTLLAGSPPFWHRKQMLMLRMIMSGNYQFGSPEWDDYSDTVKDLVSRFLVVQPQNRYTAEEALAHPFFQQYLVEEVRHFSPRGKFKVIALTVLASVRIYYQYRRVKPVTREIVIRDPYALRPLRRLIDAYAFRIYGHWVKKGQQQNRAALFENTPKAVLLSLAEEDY

Regarding `Cc1nc(N)sc1-c1csc(Nc2cccnc2)n1`, the residual activity (usually the share of the control activity or signal that is left under treatment) came out at 54% at PHKG1 (human), 50% on RPS6KA3 KD1 KD2 (human) (compound 10.0 µM), 10% on RPS6KA3 KD1 KD2 (human) (compound 100.0 µM) and 100% at SYK (human).
